{
  "source": "patent US20250107523A1",
  "about": "“TRIGGERING DIATOM PROGRAMMED CELL DEATH BY STIMULATING INFOCHEMICAL SIGNALING SYSTEMS” (BATTELLE MEMORIAL INSTITUTE, priority 2023, published 2025)",
  "key": {"model diatoms": {"system": "model diatoms", "conditions": "cited from earlier work"}, "[1]": {"system": "freshwater diatom Encyonema minutum var. pseudogracialis (Em)", "experiment": "Lethality experiments on diatom Em in 96-well plates, live/dead count by Neutral Red vital staining", "format": "cell-based", "conditions": "10 μM TDD alone; ~24 hours, 20° C.; n=3", "procedure": "Em was maintained and tested at BMI in a modified filter-sterilized CR1-S algal medium with no soil particles so as to improve visualization and counting speed and accuracy.\nAll experiments were conducted in untreated polystyrene 96-well plates. Total liquid volume added to each well was 200 μL for all assays. At the start of each experiment, a conical tube of diatom Em was split into two and given fresh media (1:1 algae:media), then examined under a microscope to confirm vitality.\nLethality experiments were conducted with 6 different commercial algicides (AlgaeFix™, DINO X, Aquathol® K, Cutrine® Plus, GreenClean® PRO, and Hydrothol® 191 Granular) and two infochemicals (trans,trans-2,4-decadienal [TDD] and cholesterol-3-sulfate [C3S]). Fresh 50 mM or 25 mM stock solutions of each infochemical were prepared in DMSO immediately prior to each experiment. […]\nFollowing incubation, 1.5 μL of filtered Neutral Red (0.8 g in 25 mL DI) for every 100 μL of solution (3 μL for 200 μL) was added to each well. […] A different staff member counted cells in 5 μL from each well using a hemocytometer under a microscope; this second staff member was not told which treatments were in which wells, so as to maintain single-blind data collection. Total cells were counted, along with live/dead characterization via Neutral Red vital cell staining, and time of well count completion."}},
  "data": [
    {"molecule": "CC(C)CCC[C@@H](C)[C@H]1CC[C@H]2[C@@H]3CC=C4C[C@@H](OS(=O)(=O)O)CC[C@]4(C)[C@H]3CC[C@]12C", "note": "[C3S, cholesterol-3-sulfate, reference compound]", "values": [
      {"measurement": "Level leading to programmed-cell-death / cell death", "setting": "model diatoms", "value": "micromolar levels"}
    ]},
    {"molecule": "CCCCC/C=C/C=C/C=O", "note": "[TDD, trans,trans-2,4-decadienal]", "values": [
      {"measurement": "Single treatment: lethality above negative control", "setting": "[1]", "value": 6.7, "unit": "%"},
      {"measurement": "Level leading to programmed-cell-death / cell death", "setting": "model diatoms", "value": "micromolar levels"}
    ]}
  ]
}
